inhibition, relative solubility and IC50 data for 19 compounds are collected here from the COVID Moonshot data (paper PMC11187573), “Identification of SARS-CoV-2 Mpro inhibitors through deep reinforcement learning for de novo drug design and computational chemistry approaches” (RSC Medicinal Chemistry, 2024).

For data set [1], the target named is SARS-CoV-2 Main Protease (SARS-CoV-2) (UniProt P0DTD1).
Data set [2] has the same target. The source holds these as a separate data set.

Each structure is given as a SMILES string.

Broadly, the inhibition is the drop in the measured response relative to a control, in per cent. The compound `CCCN(CC1COc2ccccc2O1)C(=O)c1cc(=O)[nH]c2cc(F)ccc12` (stereo unspecified) showed a relative solubility at 20 uM of 0.98 and a relative solubility at 100 uM of 0.98. Moreover, the inhibition in data set [1] (20.0 µM) is 5.21%. The inhibition in data set [1] (50.0 µM) was 8.33%. Also, the inhibition in data set [2] (50.0 µM) amounted to 0%.
`NS(=O)(=O)c1ccc(N2CCC([C@@H]3CCCO3)CC2)cc1` (stereo in doubt) gave a relative solubility at 20 uM of 0.99 and a relative solubility at 100 uM of 1. Also, in data set [1] (50.0 µM), the inhibition was -16%. Further, the inhibition in data set [2] (20.0 µM) worked out at 35%. Further, the inhibition in data set [2] (50.0 µM) came to 52.2%.
In general, IC50 refers to the concentration that inhibits the measured activity by half. A low value points to greater potency in that assay. With `CC(=O)NCCc1c[nH]c2c(CN3CCN(C(=O)CCl)CC3)cccc12`, the relative solubility at 20 uM came out at 0.95 and the relative solubility at 100 uM is 0.95. Moreover, the inhibition in data set [1] (20.0 µM) was found to be 62.8%. In data set [1] (50.0 µM), the inhibition amounted to 85.7%. In data set [2], the half-inhibitory concentration (IC50) was found to be 11.5 µM. In data set [2] (50.0 µM), the inhibition was found to be 100%.
Turning to `C=CC(=O)N(c1ccc(C(C)OC)cc1)C(C(=O)Nc1ccc(Cl)cc1)c1cccnc1` (stereo unspecified), the relative solubility at 20 uM was 0.84 and the relative solubility at 100 uM came out at 0.76. The inhibition in data set [1] (20.0 µM) came out at 12.3%. Moreover, the inhibition in data set [1] (50.0 µM) came to 26.1%. Besides, the inhibition in data set [2] (20.0 µM) is 0%.
`C=CC(=O)N(c1ccc(C(C)(C)C)cc1)C(C(=O)Nc1ccccc1OC)c1cccnc1` (stereo unspecified) showed a relative solubility at 20 uM of 0.97 and a relative solubility at 100 uM of 0.95. Moreover, the inhibition in data set [1] (20.0 µM) stood at 26.3%. In data set [1] (50.0 µM), the inhibition was determined as 44.2%. The inhibition in data set [2] (20.0 µM) was determined as 0%. Moreover, the inhibition in data set [2] (50.0 µM) was 25.4%.
Turning to `Cc1ccncc1-c1ccc(S(N)(=O)=O)cc1`, the relative solubility at 20 uM is 1 and the relative solubility at 100 uM worked out at 1. Also, the inhibition in data set [1] (50.0 µM) came out at 8.58%. Further, the inhibition in data set [2] (20.0 µM) is -2.96%. In addition, the inhibition in data set [2] (50.0 µM) was -2.15%.
`O=C(Nc1cccnc1)c1cc(Cl)ccc1-c1ccccc1`: the relative solubility at 20 uM came out at 1 and the relative solubility at 100 uM is 0.97. Further, the inhibition in data set [1] (20.0 µM) is 47.4%. In addition, the inhibition in data set [1] (50.0 µM) turned out to be 60.4%. Also, the inhibition in data set [2] (20.0 µM) was 2.13%.
For the compound `O=C(C1CCN(S(=O)(=O)c2ccccc2)CC1)N1CCOCC1`, the relative solubility at 20 uM is 1 and the relative solubility at 100 uM came out at 0.99. Besides, in data set [1] (20.0 µM), the inhibition turned out to be 1.87%. For the same compound, in data set [1] (50.0 µM), the inhibition turned out to be 5.52%. Further, the inhibition in data set [2] (20.0 µM) came to 0%. The inhibition in data set [2] (50.0 µM) amounted to 0%.
`COc1ccc2c(c1)C(C(=O)Nc1cnccc1-n1cccn1)CCC2` (stereo unspecified) came in with a relative solubility at 20 uM of 0.99 and a relative solubility at 100 uM of 0.95. The inhibition in data set [1] (20.0 µM) is -15.2%. Further, in data set [1] (50.0 µM), the inhibition stood at 7.3%. Also, the inhibition in data set [2] (50.0 µM) was found to be 0%.
For `C=CC(=O)N(c1ccc(C(C)(C)C)cc1)C(C(=O)NC(C)C)c1cccnc1` (stereo unspecified), the relative solubility at 20 uM stood at 1 and the relative solubility at 100 uM came out at 1. The inhibition in data set [1] (20.0 µM) was -1.73%. Further, the inhibition in data set [1] (50.0 µM) amounted to 0.416%. In addition, in data set [2] (20.0 µM), the inhibition was determined as 0%. Further, in data set [2] (50.0 µM), the inhibition amounted to 0%.
In turn, `COc1ccc2[nH]cc(CCNS(C)(=O)=O)c2c1` returned a relative solubility at 20 uM of 0.92 and a relative solubility at 100 uM of 0.86. Besides, the inhibition in data set [1] (20.0 µM) is -4.19%. The inhibition in data set [1] (50.0 µM) was -4.39%. For the same compound, the inhibition in data set [2] (20.0 µM) is 0%.
Taken in the same sequence, the figures for `CS(=O)(=O)Cc1ccc(C(=O)Nc2cccnc2)o1` were 1, 1, 0.469%, 6.26% and 0%.
Take `O=C(CC(=O)N1CCOCC1)NCc1ccccc1`: the relative solubility at 20 uM worked out at 0.99 and the relative solubility at 100 uM stood at 1. Further, the inhibition in data set [1] (20.0 µM) was -1.44%. In addition, the inhibition in data set [1] (50.0 µM) is 15.1%. Besides, in data set [2] (20.0 µM), the inhibition is 0%. Further, in data set [2] (50.0 µM), the inhibition turned out to be 0%.
In turn, `O=C(c1cc(=O)[nH]c2ccc(Cl)cc12)N1CCN(S(=O)(=O)c2ccccc2)CC1` gave a relative solubility at 20 uM of 0.94 and a relative solubility at 100 uM of 0.93. Also, the inhibition in data set [1] (20.0 µM) is 10.6%. Besides, the inhibition in data set [1] (50.0 µM) is 23.9%. For the same compound, the inhibition in data set [2] (50.0 µM) worked out at 22.8%.
`C=CC(=O)N(c1ccc(C(C)(C)C)cc1)C(C(=O)Nc1ccc(OC)cc1C)c1cccnc1` (stereo unspecified) came in with a relative solubility at 20 uM of 0.97 and a relative solubility at 100 uM of 0.57. The inhibition in data set [1] (50.0 µM) amounted to 22.4%. Further, the inhibition in data set [2] (20.0 µM) amounted to 0%. In addition, in data set [2] (50.0 µM), the inhibition was -2.25%.
The compound `O=C1N(Cc2cccc(Cl)c2)CCN1c1nccc2n[nH]cc12` came in with a relative solubility at 20 uM of 0.92 and a relative solubility at 100 uM of 0.93. For the same compound, the inhibition in data set [1] (20.0 µM) is 72.1%. Moreover, in data set [1] (50.0 µM), the inhibition was 84.1%. The IC50 in data set [2] stood at 2.91 µM. Besides, the inhibition in data set [2] (50.0 µM) amounted to 88.8%.
In turn, `N#Cc1cnn(-c2ccccc2NC(=O)Cc2ccn[nH]2)c1N` showed a relative solubility at 20 uM of 1 and a relative solubility at 100 uM of 0.96. Moreover, the inhibition in data set [1] (20.0 µM) was -9.14%. Moreover, the inhibition in data set [1] (50.0 µM) was 2.96%. Moreover, the inhibition in data set [2] (20.0 µM) worked out at 0%.
On to `C=CC(=O)N1CCC(N(Cc2ccccc2C#N)C2CCC(O)CC2)CC1` (stereo unspecified), for which the relative solubility at 20 uM worked out at 0.99 and the relative solubility at 100 uM was found to be 0.99. The inhibition in data set [1] (20.0 µM) was -64%. Further, the inhibition in data set [1] (50.0 µM) was -8.67%. The inhibition in data set [2] (50.0 µM) was found to be 0%.
In the case of `CNC(=O)OC1CCN(C(=O)c2ccccc2)CC1`, the relative solubility at 20 uM was determined as 1 and the relative solubility at 100 uM was determined as 1. Further, in data set [1] (50.0 µM), the inhibition was found to be 19.2%. In data set [2] (20.0 µM), the inhibition was 0%. In addition, in data set [2] (50.0 µM), the inhibition was determined as 0%.
